Target: T1, Tyk2/Jak2 (Homo sapiens, UniProt P29597)
T1 construct: Cell Type: Frozen primary phytohemagglutinin (PHA) T-Blasts; endogenous in cells; host or cells: primary PHA T-blasts
Assay: Tyk2 (Tyk2/Jak2 PSTAT4 T-Blast) alpha screen assay: inhibition of IL-12 induced phosphorylation of STAT4 in T-blast cells
Format: cell-based
Conditions: IL-12 induced pSTAT4, T-blast cells
Description: 1. TYK2 (TYK2/JAK2 PSTAT4 T-BLAST) ALPHA SCREEN ASSAY
IL-12 is known to transduce its signal through IL-12 receptor via Jak2 and/or Tyk2. For that reason, the activity against Tyk2/Jak2 was measured by determining the inhibition of IL-12 induced phosphorylation of STAT4 in T-blast cells. […] See, e.g., Sohn et al., J. Immunology (2013) 2205-2216.
Cell Type: Frozen primary phytohemagglutinin (PHA) T-Blasts; Culture Medium: Roswell Park Memorial Institute (RPMI) 1640 Medium, 10% heat-inactivated fetal bovine serum (FBS), 1% penicillin/streptomycin (Pen-Strep), 10 mM hydroxyethyl piperazineethanesulfonic acid (HEPES), 10 ng/mL recombinant human interleukin-12 (rhIL-12); Assay Medium: Hank's Balanced Salt Solution (HBSS), no phenol red.
i. Automated 11-point 1:3 dilution curve: 2.5 mM top concentration dispensed in column 1 of a Corning 96-well polypropylene plate. Dimethyl sulfoxide (DMSO) was added to column 12 for high and low controls. Compounds were serially diluted 1:3 by adding 20 uL stock to 40 μL DMSO across the plate via Hamilton Microlab Star instrument.
ii. Media dilution of compounds: Serially diluted compounds were diluted 1:50 in assay medium by adding 4 μL compound to 196 μL assay medium in a Corning 96-well polypropylene plate (now 2% DMSO).
iii. […]
Primary T-Blasts from overnight culture were centrifuged, washed once in assay medium, and pelleted. T-Blasts were counted and resuspended at 12,500,000 cells/mL. […]
Phosphorylated Signal Transducer and Activator of Transcription 4 (pSTAT4) was quantified using the PerkinElmer SureFire Ultra pSTAT4 (Tyrosine 693) Assay. […]
Make master mix of Protein A donor beads using the following volumes per well: 5.88 μL Dilution Buffer and 0.12 μL […]. […] Read plate on Perkin Elmer Envision. […]
Certain compounds listed in Table C were tested for Tyk2 activity following the aforementioned Tyk2 (Tyk2/Jak2 PSTAT4 T-Blast) alpha screen assay and Jak2 (PTATS UT7) alpha screen assay. […] Selectivity for Tyk2 over Jak1, and Tyk2 over Jak2, are calculated from the tabulated activity data.

T1 sequence (P29597 whole entry, other chains not shown): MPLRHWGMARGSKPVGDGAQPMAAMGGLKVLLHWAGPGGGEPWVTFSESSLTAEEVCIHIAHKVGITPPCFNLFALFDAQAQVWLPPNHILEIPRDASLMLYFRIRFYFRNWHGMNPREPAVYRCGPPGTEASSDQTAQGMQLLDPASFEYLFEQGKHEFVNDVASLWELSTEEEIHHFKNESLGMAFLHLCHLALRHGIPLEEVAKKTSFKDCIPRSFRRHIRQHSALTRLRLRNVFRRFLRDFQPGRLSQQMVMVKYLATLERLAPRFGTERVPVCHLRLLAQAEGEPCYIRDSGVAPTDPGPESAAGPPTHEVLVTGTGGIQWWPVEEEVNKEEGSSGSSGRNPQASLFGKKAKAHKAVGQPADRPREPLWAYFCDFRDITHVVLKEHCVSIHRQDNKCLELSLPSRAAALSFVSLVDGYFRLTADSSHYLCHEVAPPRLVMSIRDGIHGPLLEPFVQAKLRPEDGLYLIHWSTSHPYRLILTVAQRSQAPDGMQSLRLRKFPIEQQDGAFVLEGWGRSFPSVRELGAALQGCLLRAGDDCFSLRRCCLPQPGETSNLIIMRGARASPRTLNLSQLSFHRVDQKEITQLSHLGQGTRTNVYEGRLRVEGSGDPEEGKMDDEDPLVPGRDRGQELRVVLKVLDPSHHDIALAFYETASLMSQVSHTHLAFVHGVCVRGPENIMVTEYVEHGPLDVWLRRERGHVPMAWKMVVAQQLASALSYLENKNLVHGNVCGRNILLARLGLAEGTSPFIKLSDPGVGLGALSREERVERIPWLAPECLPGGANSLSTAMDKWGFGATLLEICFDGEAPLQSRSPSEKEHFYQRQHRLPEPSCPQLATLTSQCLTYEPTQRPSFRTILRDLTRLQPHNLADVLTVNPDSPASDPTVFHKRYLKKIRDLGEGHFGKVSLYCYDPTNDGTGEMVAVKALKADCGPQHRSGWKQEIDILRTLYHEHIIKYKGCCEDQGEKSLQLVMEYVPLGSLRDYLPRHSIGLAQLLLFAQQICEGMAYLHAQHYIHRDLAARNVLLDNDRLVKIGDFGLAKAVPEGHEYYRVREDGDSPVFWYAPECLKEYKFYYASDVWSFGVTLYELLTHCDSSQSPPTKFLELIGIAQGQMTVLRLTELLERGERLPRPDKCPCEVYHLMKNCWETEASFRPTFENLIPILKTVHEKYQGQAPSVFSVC

COCc1cc(-c2cn(C)c3cnc(NC(C)=O)cc23)nc([C@]2([C@H](C)O)CCOC2)c1 [Example 22.3, N-(3-(6-((R)-3-((S)-1-hydroxyethyl)tetrahydrofuran-3-yl)-4-(methoxymethyl)pyridin-2-yl)-1-methyl-1H-pyrrolo[2,3-c]pyridin-5-yl)acetamide] showed an EC50 of 0.147 µM.
For COCc1cc(-c2cn(C)c3cnc(NC(C)=O)cc23)nc([C@]2([C@@H](C)O)CCOC2)c1 [Example 22.4, N-(3-(6-((R)-3-((R)-1-hydroxyethyl)tetrahydrofuran-3-yl)-4-(methoxymethyl)pyridin-2-yl)-1-methyl-1H-pyrrolo[2,3-c]pyridin-5-yl)acetamide], the EC50 was 0.112 µM.

From US10508113B2, “Inhibitors of tyrosine kinase 2 mediated signaling” (AbbVie Inc., priority 2018, dated 2019)
